Assay results taken from article PMC6678097, “Machilin A Inhibits Tumor Growth and Macrophage M2 Polarization Through the Reduction of Lactic Acid” (Cancers, 2019).

Experiments:
HCC-95 = experiment: Lactate production assay; type: cell-based, human; conditions: normoxic
Protocol: (§1) Cellular lactate production was measured using a lactate fluorometric assay kit (Biovision, Milpitas, CA, USA) as described previously. Phenol red-free DMEM medium without FBS was added to a six-well plate containing subconfluent cells which were then incubated for 1 h at 37 °C. After incubation, the medium of each well was tested using a lactate assay kit (Biovision, Milpitas, CA, USA).

DLD-1 = experiment: Lactate production assay; type: cell-based, human; conditions: normoxic
Protocol: as §1

MCF7 = experiment: Lactate production assay; type: cell-based, human; conditions: normoxic
Protocol: as §1

HT29 [1] = experiment: Lactate production assay; type: cell-based, human; conditions: for Lactate (production): normoxic
Protocol: as §1

R.K.O = experiment: Lactate production assay; type: cell-based, human; conditions: normoxic
Protocol: as §1

NCI-H1793 = experiment: Lactate production assay; type: cell-based, human; conditions: normoxic
Protocol: as §1

HepG2 = experiment: Lactate production assay; type: cell-based, human; conditions: normoxic
Protocol: as §1

Huh7 = experiment: Lactate production assay; type: cell-based, human; conditions: normoxic
Protocol: as §1

Hep3B [2] = experiment: Lactate production assay; type: cell-based, human; conditions: normoxic
Protocol: as §1

LDHA = LDHA expression, western blot; type: cell-based, human; conditions: normoxic and hypoxic conditions
Protocol: Total protein was extracted from each cell using 1% NP-40 lysis buffer (150 mM NaCl, 10 mM HEPES (pH 7.45), 1% NP-40, 5 mM Na pyrophosphate, 5 mM NaF, 2 mM Na3VO4) containing protease inhibitor cocktail tablets (Roche, Basel, Switzerland). Equal amounts (20 μg) of protein from each sample were fractionated using SDS-PAGE and the protein was then transferred onto nitrocellulose membranes (Hybond ECL; GE Healthcare, Chicago, IL, USA) using electrophoresis. The membranes were blocked for 1 h at room temperature using 5% non-fat dry milk and were then incubated with primary antibodies specific to the target protein at 4 °C overnight. The membranes were washed three times, and incubated with the respective secondary antibodies conjugated with horseradish peroxidase. The specific bands of targeted proteins were detected using ECL Plus (GE Healthcare, Chicago, IL, USA).

HT29 [3] = experiment: Cell viability, MTT assay; type: cell-based, human
Protocol: (§2) Human colon cancer cells (WiDr, DLD-1, RKO, and HT29) and murine Lewis lung carcinoma (LLC) cells were purchased from the American Type Culture Collection (Manassas, VA, USA). Human breast cancer MCF7 cells, human hepatocellular carcinoma cells (Huh-7, HepG2, and Hep3B), and human lung cancer cells (HCC-95 and NCI-H1793) were provided by the Korean Cell Line Bank (Seoul, Korea). The HCC-95 and NCI-H1793 cells were grown in a Roswell park memorial institute medium (RPMI) 1640 medium (HyClone^TM; GE Healthcare, Chicago, IL, USA). All other cells were grown in Dulbecco’s modified eagle medium (DMEM) supplemented with L-glutamine (200 mg/L), 10% (v/v) heat-inactivated fetal bovine serum (FBS; Sigma-Aldrich, St. Louis, MO, USA), and antibiotics (100 U/mL penicillin and 100 μg/mL streptomycin; Thermo Fisher Scientific, Waltham, MA, USA) in a humidified incubator at 37 °C and with 5% CO2 before the experiments. For induction of hypoxia condition (1% oxygen), the cells were cultured were cultured in the mixture of 94% nitrogen and 5% CO2/air at 37 °C for 24 h in cell culture incubator. Cytotoxicity of MA was evaluated using an MTT assay. Briefly, cells were incubated in 24-well plates with specified concentrations of MA for 24 or 48 h. Then, MTT solution (2.0 mg/mL) was added to each well. After 4 h of incubation at 37 °C and 5% CO2 in a cell culture incubator, the conditioned media were removed, and the amount of formazan crystals formed in living cells was estimated by measuring the absorbance at 540 nm using a microplate reader (Spectramax M2; Molecular Devices, CA, USA). The respective percentages of living cells were compared with a control treatment.

Hep3B [4] = experiment: Cell viability, MTT assay; type: cell-based, human
Protocol: as §2

CT26 tumors = experiment: Tumor allograft model, CT26 cells; type: in vivo, BALB/c mice; conditions: 1, 10, or 50 µg/g body weight intraperitoneally daily
Protocol: LLC and CT26 cells were suspended separately in PBS (5 × 10^5 cells/100 µL PBS) and inoculated in subcutaneously on the back of 7-week-old C57BL/6 mice and BALB/c mice respectively (Orient Bio Inc., Seongnam, Korea; n = 7). One day after the inoculation with tumor cells, mice of the control group (n = 7) were intraperitoneally administrated 100 µL of PBS per day for 18 days. Each of the MA-treated mice were intraperitoneally administrated 0.02, 0.2, or 1 mg MA, respectively, in 100 µL PBS per 20 g body weight, each day for 18 days. All mice were euthanized 19 days after inoculation with the tumor cells, and the tumors were excised and weighed. Length (l) and width (w) of each tumor were measured using a caliper, and the respective volume (V) was calculated according to the formula V = [(l × w^2)/2]. Tumors were immediately removed from euthanized mice and prepared for histological examinations. To test liver and kidney toxicity of MA, at the end of the in vivo allograft experiment blood was collected from each mouse and serum was separated. Biochemical analyses of aspartate aminotransferase (AST), alanine aminotransferase (ALT), creatinine, and blood urea nitrogen (BUN) were performed using a commercial service (Green Cross Co., Yongin, Korea). […]

HUVECs = experiment: Growth (MTT) and tube formation of endothelial cells, direct treatment; type: cell-based, human; conditions: 24 h
Protocol: Figure S10. The viabilities of HUVECs and RAW264.7 cells on MA. (A) HUVECs were treated with indicated concentration of machilin A for 24 h. The viabilities of cells were evaluated by MTT assay.
(B ) HUVECs seeded to the Matrigel-coated wells treated with machilin A for 24 h. ( C) Raw 264.7 macrophage cells were treated with indicated concentration of machilin A for 24 h. The viabilities of cells were evaluated by MTT assay.
(1 picture or pasted object on this page, not shown here)

[5] = hypoxic and normoxic conditions, 48 h

## C[C@H](Cc1ccc2c(c1)OCO2)[C@@H](C)Cc1ccc2c(c1)OCO2 [MA, bis(3,4-methylenedioxy)-8,8’-lignan]
HCC-95; MA 10 µM
  Lactate (production): 2250 ± 160 µM
HCC-95; MA 50 µM
  Lactate (production): 1760 ± 100 µM
DLD-1; MA 10 µM
  Lactate (production): 3680 ± 90 µM
DLD-1; MA 50 µM
  Lactate (production): 2940 ± 170 µM
MCF7; MA 10 µM
  Lactate (production): 1070 ± 150 µM
MCF7; MA 50 µM
  Lactate (production): 770 ± 190 µM
HT29 [1]; MA 10 µM
  Lactate (production): 3420 ± 370 µM
HT29 [1]; MA 50 µM
  Lactate (production): 2730 ± 40 µM
HT29 [1]; machilin A 30 μM, hypoxia
  increase of lactate production in hypoxic condition: significantly reduced
R.K.O; MA 10 µM
  Lactate (production): 2760 ± 60 µM
R.K.O; MA 50 µM
  Lactate (production): 2480 ± 60 µM
NCI-H1793; MA 10 µM
  Lactate (production): 2360 ± 260 µM
NCI-H1793; MA 50 µM
  Lactate (production): 2040 ± 380 µM
HepG2; MA 10 µM
  Lactate (production): 510 ± 60 µM
HepG2; MA 50 µM
  Lactate (production): 470 ± 70 µM
Huh7; MA 10 µM
  Lactate (production): 1140 ± 320 µM
Huh7; MA 50 µM
  Lactate (production): 670 ± 150 µM
Hep3B [2]; MA 10 µM
  Lactate (production): 1120 ± 40 µM
Hep3B [2]; MA 50 µM
  Lactate (production): 730 ± 10 µM
LDHA
  expression of LDHA: not affected
HT29 [3]; Homo sapiens, HT-29, normoxic
  IC50: 107 ± 4.66 µM
HT29 [3]; [5]
  growth of cells: substantially inhibited the growth
Hep3B [4]; Homo sapiens, normoxic
  IC50: 140 ± 8.55 µM
Hep3B [4]; [5]
  growth of cells: substantially inhibited the growth
CT26 tumors
  volume, weight, and size of tumors: significantly reduced
HUVECs
  growth and tube formation of endothelial cells: did not directly inhibit
